Experimental data from patent publication US6207656A, “Vitamin D analogues and their neuronal effects” (Cephalon, Inc., priority 1998, dated 2001).
pKd: −log10 of the molar value.

Key:
GDNF mRNA = test: Induction of GDNF mRNA expression in primates; format: in vivo, monkey
Procedure: Twelve monkeys, ranging in weight from 2.0 Kg to 4.7 Kg, were divided into three groups of 4 animals each: the vehicle group (i.e., control), group dosed with 10 μg/kg/day, and group dosed with 30 μg/kg/clay. The monkeys were dosed orally for 8 days with Compound (A) and were sacrificed 5 hours after the last dosing. Brain regions were dissected and quick frozen. The dissected septi were divided into 3 preparations and two of the three regions of septum were analyzed. Total RNA was prepared and reverse transcribed and gene expression was assessed using polymerase chain reaction by the following procedure.
Total RNA was prepared by homogenizing sections of tissue in 750 μl RNAzolB™ (Biotecx Laboratories, Houston, Tex.) using a homogenizer (Tekmar, Germany) until fully homogenized and then 250 μl RNAzilB™ was added. RNA was prepared as recommended by the manufacturer (Biotecx Laboratories). […] Concentration of RNA was measured spectrophotometrically and the quality of RNA was visualized on a nondenaturing agarose gel. […]
An average of 4 PCR assays (two assays for each gene for two cDNA sets) were used in determining the induction of mRNA expression. To assure that PCR assays were within the linear range of the reaction, the linear range for each gene and each cDNA preparation was determined using serial dilutions of cDNAs. […]

vitamin D receptor = target: T1, vitamin D receptor (Gallus gallus, UniProt O42392); test: Vitamin D receptor binding (displacement of 3H-1α,25(OH)2D3)
T1 sequence (O42392 1-451): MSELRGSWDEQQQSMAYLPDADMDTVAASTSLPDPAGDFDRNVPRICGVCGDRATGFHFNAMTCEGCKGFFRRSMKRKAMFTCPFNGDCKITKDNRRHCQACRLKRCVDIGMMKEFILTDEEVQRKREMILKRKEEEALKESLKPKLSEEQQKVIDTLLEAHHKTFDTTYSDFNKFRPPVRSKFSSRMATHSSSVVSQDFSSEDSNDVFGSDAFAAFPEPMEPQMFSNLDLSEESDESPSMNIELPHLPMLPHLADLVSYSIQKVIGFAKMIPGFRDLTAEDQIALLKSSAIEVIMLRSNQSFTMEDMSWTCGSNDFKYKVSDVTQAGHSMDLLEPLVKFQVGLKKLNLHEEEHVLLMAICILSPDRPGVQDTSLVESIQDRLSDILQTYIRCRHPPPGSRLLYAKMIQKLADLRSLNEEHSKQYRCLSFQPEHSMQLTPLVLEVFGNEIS
Text: Bound and free ^3 H-1α,25(OH2)D3 were then separated on dextran-coated charcoal, samples were centrifuged and the supernatants containing the receptor-bound ^3 H-1α,25(OH2)D3 were counted in a liquid scintillation counter.

hippocampal ChAT = test: Fimbria fornix lesion model, hippocampal ChAT activity; format: in vivo, rat; details: oral gavage daily 14 days, FIGS. 4 to 8; * p<0.05 vs vehicle-treated lesioned controls
Text: The fimbria fornix lesion model is an established protocol for assessing cholinergic neuronal survival in the basal forebrain. […] Contained within the region of the brain 10 are cholinergic neurons 16. A healthy cholinergic neuron has a cell body 18, and one or more axons 20. Each of the axons 20 have a free end, referred to as a terminal 22, that extends into the hippocampus 14. In the fimbria fornix lesion model, damaged cholinergic neurons 24 are produced by transecting a portion of the axons 20 at a location 26 between the hippocampus 14 and the cell body 18. As a result of this transection, damaged cell bodies 28 are produced that no longer have cholinergic axons 30 and terminals 32. These damaged cell bodies 28, also lose cholinergic cell body markers 34 and stop producing ChAT. The fimbria fornix lesion model is used to study methods of restoring ChAT production, such as through stimulating increased production of ChAT in the healthy cholinergic neurons, and/or through restoring normal functioning of the damaged cholinergic neurons 24.
For the studies described herein, animals were anesthetized with pentobarbital and placed in a stereotaxic apparatus. The skull was opened on the left side, a knife was positioned 1.2 mm posterior to bregma and 0.6 mm lateral to the midline. The knife was lowered to 4.5 mm below the dura into the brain and moved laterally 2 mm partially transecting the fimbria fornix. After 14 days of administration of the test compounds by oral gavage, the hippocampus was removed and homogenized.
The hippocampal ChAT activity is expressed as a percentage of the hippocampal ChAT activity of the […] control side (i.e., lesion control) in FIGS. 4 to 8.

## C=C1/C(=C\C=C2/CCC[C@]3(C)[C@@H]([C@@H](C)[C@@H](C#CCC(O)(CC)CC)OCC)CC[C@@H]23)C[C@@H](O)C[C@@H]1O [Compound (A), 1(S),3(R)-dihydroxy-20(R)-(1-ethoxy-5-ethyl-5-hydroxy-2-heptyn-1-yl)-9,10-seco-pregna-5(Z),7(E),10(19)-triene]
GDNF mRNA; 10 and 30 μg/kg/day oral, 8 days, primate septum (FIG. 14B)
  production of GDNF mRNA: facilitated the production of NGF mRNA and GDNF mRNA
GDNF mRNA; 10 vs 30 μg/kg/day oral
  dosage of greatest GDNF mRNA production: greatest at a dosage of 10 μg/kg/day
Vitamin D receptor
  pKd: 9.70
Hippocampal ChAT
  hippocampal ChAT activity vs lesioned controls: significant increase in CHAT activity
